Laboratory results published in article PMC8262977, “A Dual-Specificity Inhibitor Targets Polyphosphate Kinase 1 and 2 Enzymes To Attenuate Virulence of Pseudomonas aeruginosa” (mBio, 2021).
Like-named read-outs stand apart in the source and are kept apart here.

Legend:
[1] = biological target: T1, P. aeruginosa PPK2A (Pseudomonas aeruginosa, UniProt Q9I6Z1); assay: PPK2A ADP phosphorylation by polyP (ATP synthesis), toluidine blue detection; type: biochemical; settings: ATP synthesis from ADP and polyP; 275 nM enzyme; read-out: IC50 PPK2A
T1 construct: residues P9 to P289; MBP (N, cleaved yes); His tag (N, cleaved yes); made in house; host or cells: E. coli BL21(DE3)
Procedure: (§1) All IC50 and kinetic assay mixtures contained equimolar amounts (275 nM) of PPK to ensure valid comparison between different enzymes. PolyP synthesis activity (for PPK1 and PPK2B) was assayed using the reaction buffer and conditions described above. ATP concentration was varied as indicated for kinetic experiments. Curves were fit using GraphPad Prism V9.
Nucleotide phosphorylation activity of PPK2 enzymes was assayed in buffer containing 50 mM Tris-HCl, pH 7.5, 10 mM (NH4)2SO4, 10 mM MgCl2, 5 mM polyP45 (Sigma; in terms of individual Pi monomers), and nucleotide (ADP or AMP) at 5 mM for IC50 reactions or as indicated for kinetic experiments. Enzyme was added to a final concentration of 275 nM in 100-μl reaction volumes. One-hundred-microliter reaction mixtures were incubated at 37°C for 30 min, and then 5-μl aliquots were withdrawn and added to 1,000 μl of 6-mg/liter toluidine blue dissolved in 40 mM acetic acid to quench the reaction and quantify the polyP that remained. The A630/530 nm ratio was then recorded, and the values obtained were corrected by subtracting the corresponding blanks (all ingredients except enzyme). The amount of polyP consumed was calculated by subtracting the amount present after reaction from that present in the initial reaction mix, as calculated via a standard curve. Each monomer of Pi consumed from polyP equates to one nucleoside phosphorylated. Curves were fit using GraphPad Prism V9.

[2] = tested on: HEK293T cells; assay: HEK293T cytotoxicity assay, trypan blue; type: cell-based, human; settings: concentrations up to 100 μM, 48 h incubation
Procedure: HEK293 cells were grown in Dulbecco’s modified Eagle’s medium supplemented with 10% fetal bovine serum at 5% CO2 and 37°C. Cells were grown until a confluent monolayer was formed in 12-well culture plates, at which point inhibitors or DMSO was added. After 48-h incubation, cells were detached with trypsin and percent viability was scored via a hemocytometer and trypan blue staining.

[3] = set-up: method as in PMID 29084601, PMID 24703913, PMID 30024944; settings: rats, 5 to 10 mg/kg of body weight daily for up to 8 weeks; cited from earlier work
[4] = mice, 5 to 10 mg/kg of body weight daily for up to 8 weeks; cited from earlier work
[5] = biological target: T2, P. aeruginosa PPK2B (Pseudomonas aeruginosa, UniProt Q9I154); assay: PPK2B polyP synthesis from ATP, toluidine blue detection; type: biochemical; settings: polyP synthesis from ATP; 275 nM enzyme; read-out: IC50 PPK2B
T2 construct: MBP (N, cleaved yes); His tag (N, cleaved yes); made in house; host or cells: E. coli BL21(DE3)
Procedure: Compounds were synthesized as outlined in Text S1. Compounds were dissolved in DMSO to make 10 mM stocks and added to a 200 μM final concentration for initial screening. The screen for PPK1 inhibitors was conducted by measuring polyP synthesis activity as described previously ([12]), with the exception of the polyP detection method (see Text S1). The reaction mix contained 50 mM HEPES-KOH, pH 7.5, 40 mM (NH4)2SO4, 4 mM MgSO4, 60 mM creatine phosphate, 0.0625 mg/ml creatine kinase (Sigma; from rabbit muscle), 5 mM ATP, and 275 nM PPK1 (added last). One-hundred-microliter reaction mixtures were incubated at 37°C for 30 min, after which time 50-μl aliquots were withdrawn and added to 1,000 μl of 6-mg/liter toluidine blue dissolved in 40 mM acetic acid to quench the reaction and quantify polyP ([27]). The A630/530 nm ratio was then recorded, and the values obtained were corrected by subtracting the corresponding blanks (all ingredients except enzyme). The amount of polyP synthesized was calculated using a standard curve (Fig. S1A). Any compounds showing 50% or greater reduction in activity relative to the DMSO control were subjected to further IC50 analysis.
as §1

[6] = tested on: P. aeruginosa; assay: Bacterial CFU accumulation in the C. elegans gut; type: in vivo, Caenorhabditis elegans
Procedure: (§2) Wild-type N2 C. elegans and the glp-4 conditionally sterile mutant strain were obtained from the Caenorhabditis Genetics Center. Liquid killing assays were conducted using glp-4 mutant worms as described previously ([35]), with the exception of survival being scored manually under a Zeiss light microscope instead of via Sytox Orange staining. Nematodes were scored as dead when they no longer moved when tapped. Solid killing was conducted using glp-4 as described previously ([34]), with the indicated concentration of inhibitor impregnated into the SK agar. Bacterial CFU accumulation in WT N2 worms was quantified as described previously ([56]). Briefly, age-synchronized embryos were spotted onto bacterium-seeded nematode growth medium (NGM) agar plates impregnated with inhibitor or DMSO. Embryos were incubated at 25°C for 3 days, after which point adult worms were harvested, washed, lysed, and enumerated for CFU.

[7] = tested on: P. aeruginosa PA14; assay: Bacterial growth kinetics (OD600); type: cell-based, Pseudomonas aeruginosa
Text: FIG 3 Gallein phenocopies ppk deletion to attenuate P. aeruginosa swimming motility. (A) Representative image of swimming motility. (B) Quantification of the effects of gallein treatment and ppk gene deletion on swimming motility. (C) PA14 growth kinetics in the presence and absence of gallein in lysogeny broth (equivalent in composition to swim plates, minus the agar). ns, P > 0.05; *, P < 0.05; **, P < 0.01; ***, P < 0.001 (two-way ANOVA, Tukey’s multiple-comparison test, n = 3). All data points are the average from triplicates; error bars are ±standard deviation.
Supplementary file : FIG S4 Growth curves of P. aeruginosa WT and ΔpolyP in M63 biofilm medium (A) and liquid killing C. elegans assay medium (B). Gallein, or an equivalent volume of DMSO, was added to a 100 μM final concentration. OD600 monitored in triplicate cultures grown in 96-well plates at 37°C following colony inoculation. Error bars ± standard deviation. Download FIG S4, TIF file, 2.5 MB.

[8] = tested on: P. aeruginosa; assay: C. elegans solid-phase slow killing (SK) infection assay; type: in vivo, Caenorhabditis elegans; settings: 100 μM gallein
Procedure: as §2

T2 sequence (Q9I154 whole entry): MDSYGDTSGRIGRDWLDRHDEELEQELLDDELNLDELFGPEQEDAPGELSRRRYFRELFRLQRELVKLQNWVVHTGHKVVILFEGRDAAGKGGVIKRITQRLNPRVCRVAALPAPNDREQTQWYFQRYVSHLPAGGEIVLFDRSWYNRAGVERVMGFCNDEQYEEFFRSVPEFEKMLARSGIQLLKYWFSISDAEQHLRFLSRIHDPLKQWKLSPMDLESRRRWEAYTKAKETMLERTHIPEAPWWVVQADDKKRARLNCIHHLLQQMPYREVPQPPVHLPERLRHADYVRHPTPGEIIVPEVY
T1 sequence (Q9I6Z1 68-348): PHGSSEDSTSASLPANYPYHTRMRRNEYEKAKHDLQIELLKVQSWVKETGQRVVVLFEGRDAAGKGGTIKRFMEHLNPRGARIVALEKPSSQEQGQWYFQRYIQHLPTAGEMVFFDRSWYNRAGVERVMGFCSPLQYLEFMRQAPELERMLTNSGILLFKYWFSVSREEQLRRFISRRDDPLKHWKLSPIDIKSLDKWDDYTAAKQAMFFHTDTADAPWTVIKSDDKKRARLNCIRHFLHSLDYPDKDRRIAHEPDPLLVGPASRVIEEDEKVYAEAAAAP

Compound: O=C1OC2(c3ccccc31)c1ccc(O)c(O)c1Oc1c2ccc(O)c1O [RT4 (gallein), gallein]
- IC50 [1]: 16 ± 3 µM
- cytotoxicity [2]: noncytotoxic
- adverse effects [3]: no adverse effects
- adverse effects [4]: no adverse effects
- IC50 [5]: 20 ± 2 µM
- bacterial accumulation in the nematode gut ([6]; WT strain): reduced bacterial accumulation in the nematode gut
- C. elegans accumulation CFU, Mean Diff. ([6]; WT: DMSO control vs 100 µM gallein): 783.3
- bacterial accumulation in the nematode gut (CFU) ([6]; ΔpolyP strain): no additional decrease in CFU
- bacterial accumulation in the nematode gut ([6]; Δppk1 strain): further reduced bacterial accumulation
- C. elegans accumulation CFU, Mean Diff. ([6]; ∆polyP: DMSO control vs 100 µM gallein): -33.33
- C. elegans accumulation CFU, Mean Diff. ([6]; ∆ppk1: DMSO control vs 100 µM gallein): 446.7
- growth kinetics ([7]; LK conditions, 100 μM): near-WT growth kinetics
- planktonic growth rate ([7]; biofilm assay conditions (M63 medium), 100 μM): did not affect the planktonic growth rate
- bacterial growth kinetics ([7]; lysogeny broth): did not affect bacterial growth kinetics
- C. elegans survival [8]: significantly improved survival rates
